PubChem BioAssay AID624452 (Sanford-Burnham Center for Chemical Genomics, 2012)

System: human liver microsomes, compound remaining, LC-MS
Test: metabolic stability in human liver microsomes, ADME assay, biochemical, with and without NADPH, LC-MS, set 2 (AID 624452);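 also: compound left measured after 60 min microsomal incubation at 37 °C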
Conditions: at 1 µM; for percent remaining without NADPH: measured here: stability without NADPH control

`COc1ccc(C2CC(c3ccccc3)=NN2c2ccc(S(N)(=O)=O)cc2)cc1` (centres undefined) showed a percent remaining with NADPH of 59.6% and a percent remaining without NADPH of 70%.

Work on `O=C1C2CC=CCC2C(=O)N1c1n[nH]c(-c2ccccc2)n1` (centres undefined) yielded a percent remaining with NADPH of 66.9% and a percent remaining without NADPH of 71%.

`COc1ccc(Sc2ccc(NC(=O)c3ccccc3Cl)cc2C#N)cc1` showed a percent remaining with NADPH of 27.3% and a percent remaining without NADPH of 64.4%.

`C/C=C/Cn1c(SCCCc2ccccc2)nc2c1c(=O)[nH]c(=O)n2C` showed a percent remaining with NADPH of 1.64% and a percent remaining without NADPH of 69.3%.

Work on `O=C(COC(=O)C12CC3CC(CC(C3)C1)C2)NCc1ccco1` yielded a percent remaining with NADPH of 84.8% and a percent remaining without NADPH of 100%.

`Cc1cc(-c2nnc3n2CCCCC3)c(C)n1-c1ccccc1` was tested, and the percent remaining with NADPH was 25.2% and the percent remaining without NADPH was 74.8%.

Work on `CCCN(CCC)CCNC(=O)C1CCN(Cc2nc(-c3ccc(Cl)cc3)oc2C)CC1` yielded a percent remaining with NADPH of 13.5% and a percent remaining without NADPH of 75.6%.

`Cn1nnnc1Sc1ncnc2scc(-c3ccccc3)c12` gave a percent remaining with NADPH of 28.1% and a percent remaining without NADPH of 67.5%.

For `c1ccc(-c2nnc(N3CCOCC3)nc2-c2ccccc2)cc1`, the percent remaining with NADPH was 31.1% and the percent remaining without NADPH was 79.8%.

With `Cc1cc2c(s1)c1cnn(Cc3ccccc3F)c(=O)c1n2C` the percent remaining with NADPH was 0.06% and the percent remaining without NADPH was 64.4%.

Molecule `O=C(O)c1ccccc1OCc1ccccc1Br` has a percent remaining with NADPH of 67.3% and a percent remaining without NADPH of 70%.

In the case of `COc1ccc(CSc2nc(C)cc(=O)[nH]2)cc1`, the percent remaining with NADPH is reported as 41.4% and the percent remaining without NADPH is reported as 68.6%.

`O=C(CSc1cccc2cccnc12)N1CCCC1` was tested, and the percent remaining with NADPH was 47.2% and the percent remaining without NADPH was 78.5%.

Molecule `CCOC(=O)C(C)Oc1cccc2c(=O)n(CC(=O)Nc3ccc4c(c3)OCCO4)ccc12` (centres undefined) has a percent remaining with NADPH of 68.7% and a percent remaining without NADPH of 75.6%.

For `CC(=O)c1ccc(N2CCN(S(=O)(=O)c3ccc4c(c3)CC(=O)N4)CC2)cc1`, the percent remaining with NADPH was 49% and the percent remaining without NADPH was 69.8%.

`Cc1ccc(S(=O)(=O)C(c2ccccc2)c2c(C)noc2C)cc1` (centres undefined) was tested, and the percent remaining with NADPH was 0.08% and the percent remaining without NADPH was 69.4%.

`CCCc1cc(C(=O)N(C2CCCCC2)C2CCCCC2)no1` showed a percent remaining with NADPH of 5.27% and a percent remaining without NADPH of 57.6%.

In the case of `CCCC(=O)Nc1cccc(NC(=O)c2ccccc2Br)c1`, the percent remaining with NADPH is reported as 46% and the percent remaining without NADPH is reported as 71.2%.

Work on `Cc1ccc(C(=O)n2c3ccccc3c3ccccc32)cc1` yielded a percent remaining with NADPH of 24% and a percent remaining without NADPH of 48.7%.

`NC(=O)C1CCN(c2nc(-c3ccc(Br)cc3)cs2)CC1` was tested, and the percent remaining with NADPH was 56.9% and the percent remaining without NADPH was 62%.

In the case of `Cc1ccc(S(=O)(=O)n2c(N)nc3ccccc32)cc1`, the percent remaining with NADPH is reported as 21% and the percent remaining without NADPH is reported as 79.3%.

With `Cc1ccc(S(=O)(=O)NCc2ccc(C(=O)NCCN(Cc3ccccc3)C(C)C)cc2)cc1` the percent remaining with NADPH was 0.01% and the percent remaining without NADPH was 80.3%.

Molecule `N#Cc1ccccc1CSc1nc2ncc(Br)cc2[nH]1` has a percent remaining with NADPH of 29.7% and a percent remaining without NADPH of 79.3%.

Molecule `Brc1ccc2c(c1)CN1CCCC1=N2` has a percent remaining with NADPH of 56.4% and a percent remaining without NADPH of 77.8%.

For `Cc1ccc(NC(=O)CCC(=O)N/N=C/c2ccc([N+](=O)[O-])o2)cc1C`, the percent remaining with NADPH was 37.5% and the percent remaining without NADPH was 72.6%.

Work on `Oc1cc(O)cc(/C=C/c2ccc(O)c(O)c2)c1` yielded a percent remaining with NADPH of 45.9% and a percent remaining without NADPH of 87.6%.

In the case of `Cc1ccccc1N1CCN(c2ncnc3c2cnn3Cc2ccc(Cl)cc2)CC1`, the percent remaining with NADPH is reported as 30.9% and the percent remaining without NADPH is reported as 58%.

Work on `CCCc1nc2c(=O)n(C)c(=O)nc-2n(C)n1` yielded a percent remaining with NADPH of 65.6% and a percent remaining without NADPH of 61.5%.

`O=C(O)c1cccnc1SCCc1ccccc1` showed a percent remaining with NADPH of 61.4% and a percent remaining without NADPH of 74.9%.

For `Cc1cc(C)nc(-n2nc(C)c(Sc3ccc(F)cc3)c2N)n1`, the percent remaining with NADPH was 13.4% and the percent remaining without NADPH was 79.4%.

With `O=C1CCCC2=C1C1(CCCC1)N=C(Nc1nc3ccccc3o1)N2` the percent remaining with NADPH was 11.2% and the percent remaining without NADPH was 78.1%.

`CCOc1ccc(-c2nc(-c3ccncc3)no2)cc1OCC` was tested, and the percent remaining with NADPH was 25.1% and the percent remaining without NADPH was 70.3%.

In the case of `Cc1ccc(NS(=O)(=O)c2ccc3c(c2)CCC(=O)N3)cc1C`, the percent remaining with NADPH is reported as 6.36% and the percent remaining without NADPH is reported as 66.3%.

With `Cc1cc(C(=O)CN2C(=O)CCC2=O)c(C)n1Cc1ccccc1` the percent remaining with NADPH was 34.5% and the percent remaining without NADPH was 72.6%.

Work on `O=[N+]([O-])c1ccc(CN2CCOCCOCCN(Cc3ccc([N+](=O)[O-])cc3)CCOCC2)cc1` yielded a percent remaining with NADPH of 0.31% and a percent remaining without NADPH of 72.8%.

`COc1ccc(CNCc2cccc3ccccc23)cc1` gave a percent remaining with NADPH of 0.21% and a percent remaining without NADPH of 70.7%.

Work on `Brc1cc2c(cc1C1Nc3ccccc3C3C=CCC31)OCO2` (centres undefined) yielded a percent remaining with NADPH of 28.7% and a percent remaining without NADPH of 65.5%.

`CCCN1CNc2c(c(=O)[nH]c(=S)n2CCc2ccc(OC)c(OC)c2)C1` was tested, and the percent remaining with NADPH was 48.6% and the percent remaining without NADPH was 65%.

`COc1ccc(OC)c(S(=O)(=O)Nc2cnc3ccccc3c2)c1` showed a percent remaining with NADPH of 25.9% and a percent remaining without NADPH of 71.5%.

In the case of `O=c1[nH]c2c(s1)C(c1cccnc1)C1C3CCC(C3)C1S2` (centres undefined), the percent remaining with NADPH is reported as 7.76% and the percent remaining without NADPH is reported as 71.9%.

For `Cc1ccc(N2CCN(S(=O)(=O)N3CCCCC3)CC2)c(C)c1`, the percent remaining with NADPH was 0.03% and the percent remaining without NADPH was 73.8%.

For `COC(=O)c1ccccc1NC(=O)c1ccc(F)cc1`, the percent remaining with NADPH was 53.7% and the percent remaining without NADPH was 100%.

Work on `CC(C)C(=O)NC(c1ccco1)c1ccc2cccnc2c1O` (centres undefined) yielded a percent remaining with NADPH of 49.2% and a percent remaining without NADPH of 76.4%.

`O=c1[nH]c(SCc2ccc(Cl)cc2)nc2c1CCC2` gave a percent remaining with NADPH of 12.6% and a percent remaining without NADPH of 78.5%.

Work on `O=c1oc2c(O)c(O)cc3c(=O)oc4c(O)c(O)cc1c4c23` yielded a percent remaining with NADPH of 73.1% and a percent remaining without NADPH of 93.1%.

`O=C(COc1ccccc1Br)NCCc1nc2ccccc2[nH]1` was tested, and the percent remaining with NADPH was 0.04% and the percent remaining without NADPH was 79.6%.

Work on `c1ccc(CC2CCN(c3ncnc4sccc34)CC2)cc1` yielded a percent remaining with NADPH of 9.66% and a percent remaining without NADPH of 54.9%.

Work on `Cc1ccc(C)c(NS(=O)(=O)c2cc(C(=O)Nc3ccccc3-c3ccccc3)ccc2Cl)c1` yielded a percent remaining with NADPH of 2.07% and a percent remaining without NADPH of 75.9%.

`N#C/C(=C\c1ccc([N+](=O)[O-])o1)c1nc2ccccc2[nH]1` showed a percent remaining with NADPH of 0.29% and a percent remaining without NADPH of 52.4%.

Molecule `Cc1cc(C)n(-c2nc(NCCCO)c3c4c(sc3n2)CCCC4)n1` has a percent remaining with NADPH of 0.45% and a percent remaining without NADPH of 74%.

For `COc1ccc(S(=O)(=O)N2CCN(S(=O)(=O)c3ccc4c(c3)OCCO4)CC2)cc1`, the percent remaining with NADPH was 0.64% and the percent remaining without NADPH was 55.8%.

Molecule `COc1ccc(N(C(=O)CCl)C(C(=O)NCCc2ccccc2)c2cccs2)cc1Cl` (centres undefined) has a percent remaining with NADPH of 1.54% and a percent remaining without NADPH of 39.7%.

For `CN(C)c1oc(-c2ccc(OCc3ccc(Cl)cc3)cc2)nc1C#N`, the percent remaining with NADPH was 35.5% and the percent remaining without NADPH was 67.2%.

`CCOc1ccc(NC(=S)N2CCC(C(O)(c3ccccc3)c3ccccc3)CC2)cc1` showed a percent remaining with NADPH of 22.7% and a percent remaining without NADPH of 62%.

Molecule `CC1CCCN(C(C(=O)Nc2ccc3c(c2)OCCO3)c2ccccc2)C1` (centres undefined) has a percent remaining with NADPH of 4.43% and a percent remaining without NADPH of 79.7%.

`Cn1cnc([N+](=O)[O-])c1Sc1ncnc2nc[nH]c12` was tested, and the percent remaining with NADPH was 66.6% and the percent remaining without NADPH was 66.4%.

`COc1ccc(C2c3c(ncn(CCN4CCOCC4)c3=N)Oc3ccc4ccccc4c32)cc1OC` (centres undefined) gave a percent remaining with NADPH of 7.15% and a percent remaining without NADPH of 87.2%.

For `CCc1oc2ccccc2c1C(=O)c1cc(Br)c(O)c(Br)c1`, the percent remaining with NADPH was 20.3% and the percent remaining without NADPH was 75.6%.

`CS(=O)(=O)c1ccc(C(=O)OCC(=O)NC23CC4CC(CC(C4)C2)C3)cc1[N+](=O)[O-]` was tested, and the percent remaining with NADPH was 5.75% and the percent remaining without NADPH was 81%.

With `C=CCn1c(SCC(=O)c2ccc(O)c(O)c2)nnc1-c1ccccc1OC` the percent remaining with NADPH was 30.6% and the percent remaining without NADPH was 65%.

Work on `Cc1ccc(C)c(OCCn2cc(C(=O)O)c3ccccc32)c1` yielded a percent remaining with NADPH of 35.8% and a percent remaining without NADPH of 66.7%.

In the case of `CCc1nnc(NC(=O)c2ccc(NS(=O)(=O)c3ccccc3)cc2)s1`, the percent remaining with NADPH is reported as 69.2% and the percent remaining without NADPH is reported as 76.8%.

Molecule `CN(C)C1=C(Cl)C(=O)N(c2ccc(Cl)c(Cl)c2)C1=O` has a percent remaining with NADPH of 0.26% and a percent remaining without NADPH of 36.9%.

Molecule `O=C(O)c1ccc(N2C(=O)/C(=C/c3ccc(-c4ccc([N+](=O)[O-])cc4)o3)C=C2c2ccccc2)cc1` has a percent remaining with NADPH of 67.9% and a percent remaining without NADPH of 74.3%.

`O=C(O)CCC(NS(=O)(=O)c1ccc(-c2ccccc2)cc1)C(=O)O` (centres undefined) was tested, and the percent remaining with NADPH was 75.8% and the percent remaining without NADPH was 74.2%.

In the case of `Cc1ccnc(NC(=O)CCCOc2cc(=O)n(C)c3ccccc23)c1`, the percent remaining with NADPH is reported as 0.99% and the percent remaining without NADPH is reported as 73.4%.

`CCN1CCN(c2nc3ccccc3nc2C(C#N)C(=O)OC2CCCCC2)CC1` (centres undefined) gave a percent remaining with NADPH of 14.2% and a percent remaining without NADPH of 80.8%.

With `O=S(=O)(NC1CCCCC1N1CCOCC1)c1ccc(Cl)cc1` (centres undefined) the percent remaining with NADPH was 0.11% and the percent remaining without NADPH was 78.2%.

With `COc1cccc(-c2nc(-c3ccc(NC(=O)Cc4ccccc4OC)cc3)no2)c1` the percent remaining with NADPH was 11.1% and the percent remaining without NADPH was 69.1%.

For `CCCOc1ccc(-c2nc(OC)c3ccccc3n2)cc1`, the percent remaining with NADPH was 48.3% and the percent remaining without NADPH was 81.5%.

`CCCn1ncc(CN2CCCC(C(=O)c3cccc(OC(C)C)c3)C2)c1C` (centres undefined) gave a percent remaining with NADPH of 1.55% and a percent remaining without NADPH of 79.4%.

`O=C(c1ccccn1)N(Cc1cccs1)C1(C(=O)NC2CCCCC2)CCCCC1` was tested, and the percent remaining with NADPH was 0.01% and the percent remaining without NADPH was 70.6%.

`Cc1nc(SCc2nc3ccccc3[nH]2)c2oc3ccccc3c2n1` showed a percent remaining with NADPH of 0.22% and a percent remaining without NADPH of 70.5%.

`O=C(CCNS(=O)(=O)c1cccc2nsnc12)N1CCN(c2ccccn2)CC1` was tested, and the percent remaining with NADPH was 3.36% and the percent remaining without NADPH was 71.8%.

Work on `c1ccc2c(Nc3nnc(-c4ccncc4)s3)cccc2c1` yielded a percent remaining with NADPH of 8.76% and a percent remaining without NADPH of 72.1%.

`CN(C)c1nc(N)nc(CSc2nnnn2-c2cccc3ccccc23)n1` gave a percent remaining with NADPH of 0.13% and a percent remaining without NADPH of 77.6%.

Work on `COc1ccccc1N(/N=C1\Sc2ccccc2C1=O)C(C)=O` yielded a percent remaining with NADPH of 0.32% and a percent remaining without NADPH of 68.5%.
